From patent publication US10000484B2, “Inhibitors of the renal outer medullary potassim channel” (MERCK SHARP & DOHME CORP., priority 2013, dated 2018)

These molecules were tested against T1, hROMK (hKir1.1) (Homo sapiens, UniProt P48048) (assay: Thallium Flux Assay (ROMK channel functional thallium flux assay, FLIPR-Tetra)). Settings: HEK293 cells stably expressing hROMK; 30 min incubation with compound.
T1 construct: expressed in transfected cells
T1 sequence (P48048 1-391): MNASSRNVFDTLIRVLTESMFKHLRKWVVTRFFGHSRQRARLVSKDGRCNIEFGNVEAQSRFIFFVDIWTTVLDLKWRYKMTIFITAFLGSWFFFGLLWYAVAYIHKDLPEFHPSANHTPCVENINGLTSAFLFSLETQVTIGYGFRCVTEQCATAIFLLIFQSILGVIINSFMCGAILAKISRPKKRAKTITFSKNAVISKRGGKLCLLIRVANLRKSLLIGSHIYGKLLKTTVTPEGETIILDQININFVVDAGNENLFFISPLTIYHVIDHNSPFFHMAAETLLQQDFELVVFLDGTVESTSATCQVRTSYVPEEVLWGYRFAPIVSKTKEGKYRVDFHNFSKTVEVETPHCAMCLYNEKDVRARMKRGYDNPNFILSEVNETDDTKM
Type: cell-based
Procedure: The following Thallium Flux Assay was performed on each of the final product compounds in the Examples. When the final product of an Example was an HCl salt, the salt was run in the Assay.
HEK293 cells stably expressing hROMK (hKir1.1) were grown at 37° C. in a 10% CO2 humidified incubator in complete growth media: Dulbecco's Modified Eagle Medium supplemented with non-essential amino acids, Penicillin/Streptomycin/Glutamine, G418 and FBS. At >80% confluency, aspirate the media from the flask and rinse with 10 mL Calcium/Magnesium-free PBS. Add 5 mL of 1× trypsin (prepared in Ca/Mg Free PBS) to T-225 flask and return flask to 37° C./CO2 incubator for 2-3 minutes. To dislodge the cell, gently bang the side of the flask with your hand. Triturate the cells completely and then transfer the cells to 25 mL complete media. Centrifuge at 1,500 rpm for 6 min followed by resuspension in complete growth media and determine cell concentration. For typical re-seeding, 4E6 cells/T-225 flask will attain >80% confluency in 4 days. Under ideal growth conditions and appropriate tissue culture practices, this cell line is stable for 40-45 passages.
FluxOR Kit Components (Invitrogen F10017)
• FluxOR™ Reagent (Component A) • FluxOR™ Assay Buffer (Component B)—10× Concentrate • PowerLoad™ Concentrate (Component C)—100× Concentrate • Probenecid (Component D)—Lyophilized sample is kept at −20° C. Water soluble, 100× after solubilization in 1 mL water. Store at 4° C. • FluxOR™ Chloride-free Buffer (Component E)—5× Concentrate • Potassium sulfate (K2SO4) Concentrate (Component F)—125 mM in water. Store at 4° C. • Thallium sulfate (Tl2SO4) Concentrate (Component G)—50 mM in water. Store at 4° C. • DMSO (dimethyl sulfoxide, Component H)—1 mL (100%) Reagent Preparation: FluxOR Working Solutions • 1000× FluxOR™ Reagent: Reconstitute a vial of component A in 100 μl DMSO; Mix well; Store 10 μl aliquots at −20° C. • 1× FluxOR™ Assay Buffer: Dilute Component B 10-fold with water; Adjust pH to 7.4 with Hepes/NaOH; Filter and store at 4° C. • Probenecid/Assay Buffer: 100 mL of 1× FluxOR™ Assay Buffer; 1 mL of reconstituted component D; Store at 4° C. • Loading Buffer (per microplate): 10 μl 1000× FluxOR™ Reagent; 100 μl component C; 10 mL Probenecid/Assay Buffer • Compound Buffer (per microplate): 20 mL Probenecid/Assay Buffer; 0.3 mM ouabain (10 mM ouabain in water can be stored in amber bottle/aluminum foil at room temperature); Test compound • 1× FluxOR™ Chloride-Free Buffer: Prepare 1× working solution in water. Can be stored at room temperature • Stimulant Buffer (prepared at 5× final concentration in 1× FluxOR™ Chloride-Free Buffer): 7.5 mM Thallium sulfate and 0.75 mM Potassium sulfate (to give a final assay concentration of 3 mM Thallium/0.3 mM Potassium). Store at 4° C. when not in use. Assay Protocol—
The ROMK channel functional thallium flux assay is performed in 384 wells, using the FLIPR-Tetra instrument. HEK-hKir1.1 cells are seeded in Poly-D-Lysine microplates and kept in a 37° C.-10% CO2 incubator overnight. On the day of the experiment, the growth media is replaced with the FluxOR™ reagent loading buffer and incubated, protected from light, at ambient temperature (23-25° C.) for 90 min. The loading buffer is replaced with assay buffer±test compound followed by 30 min incubation at ambient temperature, where the Thallium/Potassium stimulant is added to the microplate.
1. Seed HEK-hKir1.1 cells (50 μl at 20,000 cells/well) in 384-well PDL coated Microplates
2. Allow cells to adhere overnight in humidified 37° C./10% CO2 incubator
3. Completely remove cell growth media from microplate and replace with 25 μl loading buffer
4. Incubate Microplate at room temperature, protected form light, for 90 min
5. Remove loading buffer and replace with 25 μl 1× Assay Buffer±test compound.
6. Incubate microplate at room temperature, protected from light, for 30 min
7. At FLIPR-Tetra 384: Add stimulant (Thallium/Potassium) solution to microplate and monitor fluorescence. […]
Work on `Cc1c(C(O)CN2CCc3c(cnn3-c3ccc4c(c3)COC4=O)C2)ccc2c1COC2=O` (centres unmarked) [Example 33, 5-{1-hydroxy-2-[1-(1-oxo-1,3-dihydro-2-benzofuran-5-yl)-1,4,6,7-tetrahydro-5H-pyrazolo[4,3-c]pyridin-5-yl]ethyl}-4-methyl-2-benzofuran-1(3H)-one] yielded an IC50 of 67 nM. `Cc1c(C(O)CN2CCn3cc(-c4ccc5c(c4)COC5=O)nc3C2)ccc2c1COC2=O` (centres unmarked) [Example 34, 5-{1-hydroxy-2-[2-(1-oxo-1,3-dihydro-2-benzofuran-5-yl)-5,6-dihydroimidazo[1,2-a]pyrazin-7(8H)-yl]ethyl}-4-methyl-2-benzofuran-1(3H)-one] showed an IC50 of 99.4 nM. `COc1cc(-c2cn3c(n2)CN(CC(O)c2ccc4c(c2C)COC4=O)CC3)ccc1C#N` (centres unmarked) [Example 35, 4-{7-[2-hydroxy-2-(4-methyl-1-oxo-1,3-dihydro-2-benzofuran-5-yl)ethyl]-5,6,7,8-tetrahydroimidazo[1,2-a]pyrazin-2-yl}-2-methoxybenzonitrile] was tested, and the IC50 was 154 nM. `Cc1c(C(O)CN2CCn3c(nn(-c4ccc(C#N)c(F)c4)c3=O)C2)ccc2c1COC2=O` (centres unmarked) [Example 36, 2-fluoro-4-{7-[2-hydroxy-2-(4-methyl-1-oxo-1,3-dihydro-2-benzofuran-5-yl)ethyl]-3-oxo-5,6,7,8-tetrahydro[1,2,4]triazolo[4,3-a]pyrazin-2(3H)-yl}benzonitrile] showed an IC50 of 163 nM. `Cc1c(C(O)CN2CCn3c(nn(-c4ccc5c(c4)COC5=O)c3=O)C2)ccc2c1COC2=O` (centres unmarked) [Example 37, 7-[2-hydroxy-2-(4-methyl-1-oxo-1,3-dihydro-2-benzofuran-5-yl)ethyl]-2-(1-oxo-1,3-dihydro-2-benzofuran-5-yl)-5,6,7,8-tetrahydro[1,2,4]triazolo[4,3-a]pyrazin-3(2H)-one] was tested, and the IC50 was 291 nM. `Cc1c(C(O)CN2CCc3nc(-c4ccc(C#N)c(F)c4)ncc3C2)ccc2c1COC2=O` (centres unmarked) [Example 38, 2-fluoro-4-{6-[2-hydroxy-2-(4-methyl-1-oxo-1,3-dihydro-2-benzofuran-5-yl)ethyl]-5,6,7,8-tetrahydropyrido[4,3-d]pyrimidin-2-yl}benzonitrile] was tested, and the IC50 was 82 nM. `Cc1cc(C#N)ccc1-c1ncc2c(n1)CCN(CC(O)c1ccc3c(c1C)COC3=O)C2` (centres unmarked) [Example 39, 4-{6-[2-hydroxy-2-(4-methyl-1-oxo-1,3-dihydro-2-benzofuran-5-yl)ethyl]-5,6,7,8-tetrahydropyrido[4,3-d]pyrimidin-2-yl}-3-methylbenzonitrile] showed an IC50 of 337 nM. Work on `Cc1c(C(O)CN2CCc3nc(-c4ccc(C#N)cn4)ncc3C2)ccc2c1COC2=O` (centres unmarked) [Example 40, 6-{6-[2-hydroxy-2-(4-methyl-1-oxo-1,3-dihydro-2-benzofuran-5-yl)ethyl]-5,6,7,8-tetrahydropyrido[4,3-d]pyrimidin-2-yl}pyridine-3-carbonitrile] yielded an IC50 of 155 nM. In the case of `Cc1c(C(O)CN2CCc3nc(-c4ccc(C#N)cc4F)ncc3C2)ccc2c1COC2=O` (centres unmarked) [Example 41, 3-fluoro-4-{6-[2-hydroxy-2-(4-methyl-1-oxo-1,3-dihydro-2-benzofuran-5-yl)ethyl]-5,6,7,8-tetrahydropyrido[4,3-d]pyrimidin-2-yl}benzonitrile], the IC50 is reported as 463 nM. For `Cc1c([C@@H](O)CN2CCc3c(-c4ccc(C#N)c(F)c4)n[nH]c3C2)ccc2c1COC2=O` [Example 42, 3-(4-cyano-3-fluorophenyl)-6-((R)-2-hydroxy-2-(4-methyl-1-oxo-1,3-dihydroisobenzofuran-5-yl)ethyl)-4,5,6,7-tetrahydro-1H-pyrazolo[3,4-c]pyridine], the IC50 was 173 nM. `Cc1c([C@@H](O)CN2CCc3c(cnn3-c3ccc(C#N)cn3)C2)ccc2c1COC2=O` [Example 43, 6-{5-[(2R)-2-hydroxy-2-(4-methyl-1-oxo-1,3-dihydro-2-benzofuran-5-yl)ethyl]-4,5,6,7-tetrahydro-1H-pyrazolo[4,3-c]pyridin-1-yl}pyridine-3-carbonitrile] gave an IC50 of 592 nM.
